Results reported in patent publication US7718808B2, “Thiazole derivatives” (Kyowa Hakko Kirin Co., Ltd., priority 2003, dated 2010).

| melting point | SMILES |
| --- | --- |
| 199 to 200 °C | O=C(CN1CCN(c2ncccn2)CC1)Nc1nc(-c2ccco2)c(C(=O)c2ccccn2)s1 [Compound 278, N-[4-(2-Furyl)-5-(pyridin-2-ylcarbonyl)thiazol-2-yl]-2-[4-(2-pyrimidinyl)piperazin-1-yl]acetamide] |
| 172 to 188 °C | O=C(CN1CCN(C2CCOCC2)CC1)Nc1nc(-c2ccco2)c(C(=O)c2ccccn2)s1 [Compound 279, N-[4-(2-Furyl)-5-(pyridin-2-ylcarbonyl)thiazol-2-yl]-2-[4-(tetrahydropyran-4-yl)piperazin-1-yl]acetamide] |
| 153 to 155 °C | O=C(CN1CCSC1)Nc1nc(-c2ccco2)c(C(=O)c2ccccn2)s1 [Compound 281, N-[4-(2-Furyl)-5-(pyridin-2-ylcarbonyl)thiazol-2-yl]-2-(1,3-thiazolidin-3-yl)acetamide] |
| 148 to 149 °C | O=C(CN1CCSCC1)Nc1nc(-c2ccco2)c(C(=O)c2ccccn2)s1 [Compound 282, N-[4-(2-Furyl)-5-(pyridin-2-ylcarbonyl)thiazol-2-yl]-2-thiomorpholinoacetamide] |
| 247 to 250 °C | COc1cccc(C(=O)c2sc(NC(=O)c3ccncc3)nc2-c2ccco2)n1 [Compound 283, N-[4-(2-Furyl)-5-(6-methoxypyridin-2-ylcarbonyl)thiazol-2-yl]pyridine-4-carboxamide] |
| 238 to 241 °C | Cc1cccc(C(=O)c2sc(NC(=O)c3ccncc3)nc2-c2ccco2)n1 [Compound 284, N-[4-(2-Furyl)-5-(6-methylpyridin-2-ylcarbonyl)thiazol-2-yl]pyridine-4-carboxamide] |
| 255 to 257 °C | Cc1ccc(C(=O)c2sc(NC(=O)c3ccncc3)nc2-c2ccco2)nc1 [Compound 294, N-[4-(2-Furyl)-5-(5-methylpyridin-2-ylcarbonyl)thiazol-2-yl]pyridine-4-carboxamide] |
| 240 to 245 °C | Cc1ccnc(C(=O)c2sc(NC(=O)c3ccncc3)nc2-c2ccco2)c1 [Compound 295, N-[4-(2-Furyl)-5-(4-methylpyridin-2-ylcarbonyl)thiazol-2-yl]pyridine-4-carboxamide] |
| 245 to 248 °C | O=C(Nc1nc(-c2ccco2)c(C(=O)c2cccnc2)s1)c1ccncc1 [Compound 304, N-[4-(2-Furyl)-5-(pyridin-3-ylcarbonyl)thiazol-2-yl]pyridine-4-carboxamide] |
| 231 to 233 °C | O=C(c1cccnc1)c1sc(NC(=O)C2CC2)nc1-c1ccco1 [Compound 305, N-[4-(2-Furyl)-5-(pyridin-3-ylcarbonyl)thiazol-2-yl]cyclopropanecarboxamide] |
| 288 to 290 °C | N#Cc1ccc(C(=O)Nc2nc(-c3ccco3)c(C(=O)c3cccnc3)s2)cc1 [Compound 306, 4-Cyano-N-[4-(2-furyl)-5-(pyridin-3-ylcarbonyl)thiazol-2-yl]benzamide] |
| 234 to 236 °C | O=C(Nc1nc(-c2ccco2)c(C(=O)c2cccnc2)s1)c1ccco1 [Compound 307, N-[4-(2-Furyl)-5-(pyridin-3-ylcarbonyl)thiazol-2-yl]furan-2-carboxamide] |
| 230 to 234 °C | Cc1ncccc1C(=O)c1sc(NC(=O)c2ccncc2)nc1-c1ccco1 [Compound 310, N-[4-(2-Furyl)-5-(2-methylpyridin-3-ylcarbonyl)thiazol-2-yl]pyridine-4-carboxamide] |
| 230 to 232 °C (dec.) | Cc1ccc(C(=O)c2sc(NC(=O)c3ccncc3)nc2-c2ccco2)cn1 [Compound 313, N-[4-(2-Furyl)-5-(2-methylpyridin-5-ylcarbonyl)thiazol-2-yl]pyridine-4-carboxamide] |
| 261 to 265 °C | Cc1ccc(C(=O)c2sc(NC(=O)c3ccc(C#N)cc3)nc2-c2ccco2)cn1 [Compound 314, 4-Cyano-N-[4-(2-furyl)-5-(2-methylpyridin-5-ylcarbonyl)thiazol-2-yl]benzamide] |
| 197 to 209 °C | Cc1ccc(C(=O)c2sc(NC(=O)c3ccco3)nc2-c2ccco2)cn1 [Compound 315, N-[4-(2-Furyl)-5-(2-methylpyridin-5-ylcarbonyl)thiazol-2-yl]furan-2-carboxamide] |
| 229 to 231 °C | Cc1ccc(C(=O)c2sc(NC(=O)c3ccoc3)nc2-c2ccco2)cn1 [Compound 316, N-[4-(2-Furyl)-5-(2-methylpyridin-5-ylcarbonyl)thiazol-2-yl]furan-3-carboxamide] |
| 246 to 257 °C (dec.) | COc1ccc(C(=O)c2sc(NC(=O)c3ccncc3)nc2-c2ccco2)cn1 [Compound 319, N-[4-(2-Furyl)-5-(2-methoxypyridin-5-ylcarbonyl)thiazol-2-yl]pyridine-4-carboxamide] |
| 195 to 205 °C | O=C(Nc1nc(-c2ccco2)c(C(=O)c2ccc(N3CCOCC3)nc2)s1)c1ccncc1 [Compound 324, N-[4-(2-Furyl)-5-(2-morpholinopyridin-5-ylcarbonyl)thiazol-2-yl]pyridine-4-carboxamide] |
| 195 to 205 °C | CN1CCN(c2ccc(C(=O)c3sc(NC(=O)c4ccncc4)nc3-c3ccco3)cn2)CC1 [Compound 325, N-(4-(2-Furyl)-5-[2-(4-methylpiperazin-1-yl)pyridin-5-ylcarbonyl]thiazol-2-yl)pyridine-4-carboxamide] |

| melting point | SMILES |
| --- | --- |
| 264 to 268 °C | O=C(Nc1nc(-c2ccco2)c(C(=O)c2ccc(N3CCC(O)CC3)nc2)s1)c1ccncc1 [Compound 326, N-{4-(2-Furyl)-5-[2-(4-hydroxypiperidino)pyridin-5-ylcarbonyl]thiazol-2-yl}pyridine-4-carboxamide] |
| 276 to 285 °C | O=C(Nc1nc(-c2ccco2)c(C(=O)c2ccncc2)s1)c1ccncc1 [Compound 329, N-[4-(2-Furyl)-5-(pyridin-4-ylcarbonyl)thiazol-2-yl]pyridine-4-carboxamide] |
| 223 to 225 °C | Cc1cc(C(=O)c2sc(NC(=O)c3ccncc3)nc2-c2ccco2)ccn1 [Compound 332, N-[4-(2-Furyl)-5-(2-methylpyridin-4-ylcarbonyl)thiazol-2-yl]pyridine-4-carboxamide] |
| 205 to 229 °C | Cc1cc(C(=O)Nc2nc(-c3ccco3)c(C(=O)c3ccnc(C)c3)s2)ccn1 [Compound 333, N-[4-(2-Furyl)-5-(2-methylpyridin-4-ylcarbonyl)thiazol-2-yl]-2-methylpyridine-4-carboxamide] |
| 237 to 239 °C | COc1cc(C(=O)c2sc(NC(=O)c3ccncc3)nc2-c2ccco2)ccn1 [Compound 336, N-[4-(2-Furyl)-5-(2-methoxypyridin-4-ylcarbonyl)thiazol-2-yl]pyridine-4-carboxamide] |
| 270 to 273 °C | O=C(Nc1nc(-c2ccco2)c(C(=O)c2ccnc(N3CCOCC3)c2)s1)c1ccncc1 [Compound 339, N-[4-(2-Furyl)-5-(2-morpholinopyridin-4-ylcarbonyl)thiazol-2-yl]pyridine-4-carboxamide] |
| 245 to 248 °C | O=C(Nc1nc(-c2ccco2)c(C(=O)c2ccco2)s1)c1ccncc1 [Compound 342, N-[4-(2-Furyl)-5-(furan-2-ylcarbonyl)thiazol-2-yl]pyridine-4-carboxamide] |
| 185 to 189 °C | Cc1ccc(C(=O)c2sc(NC(=O)c3ccncc3)nc2-c2ccco2)o1 [Compound 343, N-[4-(2-Furyl)-5-(5-methylfuran-2-ylcarbonyl)thiazol-2-yl]pyridine-4-carboxamide] |
| 217 to 231 °C | O=C(Nc1nc(-c2ccco2)c(C(=O)c2ccoc2)s1)c1ccncc1 [Compound 346, N-[4-(2-furyl)-5-(furan-3-ylcarbonyl)thiazol-2-yl]pyridine-4-carboxamide] |
| 208 to 210 °C | O=C(Nc1nc(-c2ccco2)c(C(=O)c2cccs2)s1)c1ccncc1 [Compound 347, N-[4-(2-Furyl)-5-(thiophen-2-ylcarbonyl)thiazol-2-yl]pyridine-4-carboxamide] |
| 275 to 277 °C (dec.) | Cc1cnc(C(=O)c2sc(NC(=O)c3ccncc3)nc2-c2ccco2)s1 [Compound 349, N-[4-(2-Furyl)-5-(5-methylthiazol-2-ylcarbonyl)thiazol-2-yl]pyridine-4-carboxamide] |
| 250 to 255 °C | Cc1csc(C(=O)c2sc(NC(=O)c3ccncc3)nc2-c2ccco2)n1 [Compound 350, N-[4-(2-Furyl)-5-(4-methylthiazol-2-ylcarbonyl)thiazol-2-yl]pyridine-4-carboxamide] |
| 270 to 272 °C (dec.) | Cc1nc(C(=O)c2sc(NC(=O)c3ccncc3)nc2-c2ccco2)sc1C [Compound 351, N-[5-(4,5-Dimethylthiazol-2-ylcarbonyl)-4-(2-furyl)thiazol-2-yl]pyridine-4-carboxamide] |
| 209 to 211 °C | Cn1ccc(C(=O)c2sc(NC(=O)c3ccncc3)nc2-c2ccco2)c1 [Compound 354, N-[4-(2-Furyl)-5-(1-methylpyrrol-3-ylcarbonyl)thiazol-2-yl]pyridine-4-carboxamide] |
| 127 to 134 °C | CCn1ccc(C(=O)c2sc(NC(=O)c3ccncc3)nc2-c2ccco2)c1 [Compound 355, N-[5-(1-Ethylpyrrol-3-ylcarbonyl)-4-(2-furyl)thiazol-2-yl]pyridine-4-carboxamide] |
| 175 to 178 °C | O=C(Nc1nc(-c2ccco2)c(C(=O)c2ccn(Cc3ccccc3)c2)s1)c1ccncc1 [Compound 356, N-[5-(1-Benzylpyrrol-3-ylcarbonyl)-4-(2-furyl)thiazol-2-yl]pyridine-4-carboxamide] |
| 294 to 295 °C | Cn1cc(C(=O)c2sc(NC(=O)c3ccncc3)nc2-c2ccco2)ccc1=O [Compound 360, N-[4-(2-Furyl)-5-(1-methyl-2-oxo-1,2-dihydropyridin-5-ylcarbonyl)thiazol-2-yl]pyridine-4-carboxamide] |
| 295 to 296 °C | CCn1cc(C(=O)c2sc(NC(=O)c3ccncc3)nc2-c2ccco2)ccc1=O [Compound 362, N-[5-(1-Ethyl-2-oxo-1,2-dihydropyridin-5-ylcarbonyl)-4-(2-furyl)thiazol-2-yl]pyridine-4-carboxamide] |
| 265 to 282 °C (dec.) | O=C(Nc1nc(-c2ccco2)c(C(=O)c2ccc(=O)n(Cc3ccccc3)c2)s1)c1ccncc1 [Compound 364, N-[5-(1-Benzyl-2-oxo-1,2-dihydropyridin-5-ylcarbonyl)-4-(2-furyl)thiazol-2-yl]pyridine-4-carboxamide] |
